# Source: patent publication US9290516B2, “Benzobis(thiadiazole) derivative and organic electronics device comprising same” (Ube Industries, Ltd., priority 2012, dated 2016)
# Where two headings read alike, the source gives them in different places.
# Assays:
# Assay type in all cases: physicochemical
# [1] = Solubility Experiment 3 (chlorobenzene, visual observation); conditions: organic solvent or mixture, thermodynamic from solid, 1 mg in 1 mL chlorobenzene
# Procedure: 1 mg of each compound shown in Table 1 [BBT-(1)-BBT-(14)] was added to 1 mL of a solvent (chlorobenzene) and the mixture was heated to 100° C. or 140° C., and the solubility was evaluated by visual observation.
# [2] = Solubility Experiment 1 (1,2-dichlorobenzene); conditions: 5 mg in 1.6 g 1,2-dichlorobenzene, heated to 150° C.
# Procedure: Into a 20-ml glass vessel equipped with a stirring apparatus were placed 5 mg of BBT-(1), and 1.6 g of 1,2-dichlorobenzene.
# (§1) On the other hand, using BBT-(11): (FPTBBT) synthesized in Reference Example 1, instead of BBT-(1), the preparation of a solution of BBT-(11) in 1,2-dichlorobenzene was attempted in accordance with [Solubility Experiment 1]. […] The suspension was filtered through a 0.2-μm filter, and then dropped onto a silicon wafer as described above. And then, without any treatment, the solvent component was volatilized, but the formation of a thin film of BBT-(11) was not confirmed. Meanwhile, using BBT-(11), instead of BBT-(1), the preparation of a solution of BBT-(11) in mesitylene was attempted in accordance with [Solubility Experiment 2]. […] The suspension was filtered through a 0.2-μm filter, and then dropped onto a silicon wafer as described above. And then, without any treatment, the solvent component was volatilized, but the formation of a thin film of BBT-(11) was not confirmed.
# [3] = Solubility Experiment 2 (mesitylene); conditions: 5 mg in 1.6 g mesitylene, heated to 100° C.
# Procedure: Into a 20-ml glass vessel equipped with a stirring apparatus were placed 5 mg of BBT-(1), and 1.6 g of mesitylene.
# as §1
# [4] = heated to 100° C., read-out: Solubility chlorobenzene (° C.) 100
# [5] = heated to 140° C., read-out: Solubility chlorobenzene (° C.) 140
Structure (SMILES),"solubility [1, 4] [µg/mL]","solubility [1, 5] [µg/mL]","Solubility in 1,2-dichlorobenzene [2]",Solubility in mesitylene [3]
FC(F)(F)Oc1ccccc1-c1ccc(-c2c3c(c(-c4ccc(-c5ccccc5OC(F)(F)F)s4)c4nsnc24)N=S=N3)s1 [BBT-(3)],> 1000,> 1000,–,–
CC(C)CC(F)c1ccc(-c2ccc(-c3c4c(c(-c5ccc(-c6ccc(C(F)CC(C)C)cc6)s5)c5nsnc35)N=S=N4)s2)cc1 (stereo not drawn) [BBT-(9)],< 1000,> 1000,–,–
CCCCCCCCCC(F)(F)Oc1ccc(-c2ccc(-c3c4c(c(-c5ccc(-c6ccc(OC(F)(F)CCCCCCCCC)cc6)s5)c5nsnc35)N=S=N4)s2)cc1 [BBT-(7)],> 1000,> 1000,–,–
FC(F)(F)Oc1ccc(-c2ccc(-c3c4c(c(-c5ccc(-c6ccc(OC(F)(F)F)cc6)s5)c5nsnc35)N=S=N4)s2)cc1 [BBT-(1)],> 1000,> 1000,completely dissolved,completely dissolved
CCCCCCCCCCC(F)(F)c1ccc(-c2ccc(-c3c4c(c(-c5ccc(-c6ccc(C(F)(F)CCCCCCCCCC)cc6)s5)c5nsnc35)N=S=N4)s2)cc1 [BBT-(5)],> 1000,> 1000,–,–
CC(F)(F)c1ccc(-c2ccc(-c3c4c(c(-c5ccc(-c6ccc(C(C)(F)F)cc6)s5)c5nsnc35)N=S=N4)s2)cc1 [BBT-(4)],< 1000,> 1000,–,–
"FC(F)(F)c1ccc(-c2ccc(-c3c4c(c(-c5ccc(-c6ccc(C(F)(F)F)cc6)s5)c5nsnc35)N=S=N4)s2)cc1 [BBT-(11), reference compound]",< 1000,< 1000,not completely dissolved,not completely dissolved
CCCCCCCCCCOC(F)(F)c1ccc(-c2ccc(-c3c4c(c(-c5ccc(-c6ccc(C(F)(F)OCCCCCCCCCC)cc6)s5)c5nsnc35)N=S=N4)s2)cc1 [BBT-(10)],> 1000,> 1000,–,–
"COc1ccc(-c2ccc(-c3c4c(c(-c5ccc(-c6ccc(OC)cc6)s5)c5nsnc35)N=S=N4)s2)cc1 [BBT-(13), reference compound]",< 1000,> 1000,–,–
"CCCCCCCCCc1ccc(-c2ccc(-c3c4c(c(-c5ccc(-c6ccc(CCCCCCCCC)cc6)s5)c5nsnc35)N=S=N4)s2)cc1 [BBT-(14), reference compound]",> 1000,> 1000,–,–
FC(F)(F)Oc1cccc(-c2ccc(-c3c4c(c(-c5ccc(-c6cccc(OC(F)(F)F)c6)s5)c5nsnc35)N=S=N4)s2)c1 [BBT-(2)],> 1000,> 1000,–,–
CC(F)(F)Oc1ccc(-c2ccc(-c3c4c(c(-c5ccc(-c6ccc(OC(C)(F)F)cc6)s5)c5nsnc35)N=S=N4)s2)cc1 [BBT-(6)],< 1000,> 1000,–,–
"Cc1ccc(-c2ccc(-c3c4c(c(-c5ccc(-c6ccc(C)cc6)s5)c5nsnc35)N=S=N4)s2)cc1 [BBT-(12), reference compound]",> 1000,> 1000,–,–
